In US9302999B2, “Substituted triazoles as herbicides” (E. I. DU PONT DE NEMOURS AND COMPANY, priority 2012, dated 2016):

What was measured:
[1] = tested on: waterhemp_RES1 (ALS/Triazine resistant common waterhemp, Amaranthus rudis); test: Test F postemergence: waterhemp_RES1; assay type: in vivo; settings: scale 0 to 100
From the text: (§1) Seeds of plant species selected from corn (Zea mays), soybean (Glycine max), velvetleaf (Abutilon theophrasti), lambsquarters (Chenopodium album), poinsettia, wild (wild poinsettia, Euphorbia heterophylla), pigweed, palmer (palmer pigweed, Amaranthus palmeri), waterhemp (common waterhemp, Amaranthus rudis), surinam grass (Brachiaria decumbens), crabgrass, Brazil (Brazilian crabgrass, Digitaria horizontalis), panicum, fall (fall panicum Panicum dichotomiflorum), crabgrass, large (large crabgrass, Digitaria sanguinalis), foxtail, giant (giant foxtail, Setaria faberii), foxtail, green (green foxtail Setaria viridis), goosegrass (Eleusine indica), ragweed (common ragweed, Ambrosia elatior), barnyardgrass (Echinochloa crus-galli), sandbur (southern sandbur, Cenchrus echinatus), arrowleaf sida (Sida rhombifolia), ryegrass, Italian (Italian ryegrass, Lolium multiflorum), dayflower, VA (Virginia (VA) dayflower, Commelina virginica), field bindweed (Convolvulus arvensis), cocklebur (common cocklebur, Xanthium strumarium), morningglory (Ipomoea coccinea), nightshade (eastern black nightshade, Solanum ptycanthum), kochia (Kochia scoparia), nutsedge, yellow (yellow nutsedge, Cyperus esculentus), johnsongrass (Sorghum halepense), smartweed (ladysthumb smartweed, Polygonum persicaria), and beggarticks (hairy beggarticks, Bidens pilosa), were planted into a silt loam soil and treated preemergence with test chemicals formulated in a non-phytotoxic solvent mixture which included a surfactant. At the same time, plants selected from these crop and weed species and also pigweed (Amaranthus retroflexus), waterhemp_RES1 (ALS/Triazine resistant common waterhemp, Amaranthus rudis) and waterhemp_RES2 (ALS/HPPD resistant common waterhemp, Amaranthus rudis) were planted in pots containing a planting medium comprising spaghnum peat moss, vermiculite, wetting agent and starter nutrients treated with postemergence applications of some of the test chemicals formulated in the same manner. Plants ranged in height from 2 to 18 cm for postemergence treatments (1- to 4-leaf stage).
(§2) Treated plants and controls were maintained in a greenhouse for 14 to 21 days, after which time all species were compared to controls and visually evaluated. Plant response ratings, summarized in Table E, are based on a scale of 0 to 100 where 0 is no effect and 100 is complete control. A dash (-) response means no test result.

[2] = tested on: waterhemp_RES2 (ALS/HPPD resistant common waterhemp, Amaranthus rudis); test: Test F postemergence: waterhemp_RES2; assay type: in vivo; settings: scale 0 to 100
From the text: as §1, §2

SMILES	Plant response rating, Waterhemp, Res1 ([1]; 16 g ai/ha)	Plant response rating, Waterhemp, Res1 ([1]; 31 g ai/ha)	Plant response rating, Waterhemp, Res1 ([1]; 62 g ai/ha)	Plant response rating, Waterhemp, Res1 ([1]; 125 g ai/ha)	Plant response rating, Waterhemp, Res1 ([1]; 250 g ai/ha)	Plant response rating, Waterhemp, Res2 ([2]; 16 g ai/ha)	Plant response rating, Waterhemp, Res2 ([2]; 31 g ai/ha)	Plant response rating, Waterhemp, Res2 ([2]; 62 g ai/ha)	Plant response rating, Waterhemp, Res2 ([2]; 125 g ai/ha)	Plant response rating, Waterhemp, Res2 ([2]; 250 g ai/ha)	Plant response rating, Waterhemp, Res1 ([1]; 8 g ai/ha)	Plant response rating, Waterhemp, Res2 ([2]; 8 g ai/ha)
CCc1nn(-c2ccc(C(F)(F)F)cc2)nc1Oc1ccnc(C(F)(F)F)c1 [Compound 169]	85	90	90	95	95	75	85	95	100	100		
CCCc1nn(-c2ccc(F)c(F)c2)nc1Oc1ccnc(C(F)(F)F)c1 [Compound 172]		70		95	95							
CCOc1nn(-c2ccc(F)cc2)nc1Cc1ccnc(C(F)(F)F)c1 [Compound 196, 4-[[5-ethoxy-2-(4-fluorophenyl)-2H-1,2,3-triazol-4-yl]methyl]-2-(trifluoromethyl)pyridine]	95	95	95	100		90	95	95	95		95	90
